Values quoted from earlier work, collected in patent US20240344094A1, “METHODS AND COMPOSITIONS USEFUL FOR THE PRODUCTION OF OLEFINIC ESTER” (THE REGENTS OF THE UNIVERSITY OF CALIFORNIA, priority 2021, published 2024).

solubility in water (20° in water)	solubility limit in water (water)	Compound
about 90 g/L	–	C=C(C)CCO [Isoprenol, 3-methyl-3-buten-1-ol]
–	~10 g/L	CC(=O)OCCC(C)C [isoamyl acetate]
